Earlier results in patent US7482343B2, “Compounds, methods and compositions” (Cytokinetics, Inc., priority 2002, dated 2009).

test system: A549 cells; conditions: data provided by National Cancer Institute

Row | SMILES | GI50 [nM]
1 | CC(=O)O[C@H]1C(=O)[C@@]2(C)[C@H]([C@H](OC(=O)c3ccccc3)[C@]3(O)C[C@H](OC(=O)[C@H](O)[C@@H](NC(=O)c4ccccc4)c4ccccc4)C(C)=C1C3(C)C)[C@]1(OC(C)=O)CO[C@@H]1C[C@@H]2O [paclitaxel] | 4
2 | O=c1[nH]cc(F)c(=O)[nH]1 [5-fluorouracil] | 1000
3 | NC(=O)NO [hydroxyurea] | 500000
4 | COc1cccc2c1C(=O)c1c(O)c3c(c(O)c1C2=O)C[C@@](O)(C(=O)CO)C[C@@H]3O[C@H]1C[C@H](N)[C@H](O)[C@H](C)O1 [doxorubicin] | 63
